Data taken from patent US20240167037A1, “CANCER THERAPY” (NATIONAL UNIVERSITY CORPORATION KOBE UNIVERSITY, priority 2021, published 2024).

What was measured:
Assay type in all cases: cell-based, human
MDA-MB-231 cells [1] = test: In vitro invasion assay (BioCoat Matrigel Invasion Chambers); details: MβCD 4 mM, calyculin A 0.5 nM; drugs added in both sides; 24 h; FIG. 10b
Protocol: In vitro invasion and migration assays. For invasion and migration assays, we used BioCoat Matrigel Invasion Chambers (Corning) and 8.0 μm PET trans-migration inserts (Corning), respectively. In the invasion assay, 1×10^5 cells were suspended in serum-free medium and seeded on top of the chamber's membrane, in which medium containing serum was placed at the bottom. For MβCD or calyculin A treatment, drugs were added in both sides. Low-invasive epithelial (MCF10A, AU565, and MCF7) cells and MDA-MB-231 cells were incubated for 36 h and 24 h, respectively, and then fixed in 4% formaldehyde. Invaded cells were imaged using a BZ-X700 microscope (Keyence) with 10× magnification and counted. In the migration assay, 5×10^4 cells were seeded on top of the PET membrane, incubated for 24 h, and analyzed as described for the invasion assay. For the quantification of invasive structures grown in 3D on-top culture (FIGS. 5a and b), the elongated mesenchymal-like and rounded morphologies were defined as invasive and non-invasive phenotypes, respectively, and quantified.

MDA-MB-231 cells [2] = test: Tether force measurement with optical tweezers and estimation of PM tension; details: MβCD 4 mM vs mock (FIG. 10c), MA-ezrin expression vs parental (FIG. 4a)
Protocol: Tether force measurement with optical tweezers and the estimation of PM tension. Tether force measurements were performed with an optical tweezers system (NanoTracker™ 2, JPK Instruments) equipped with an infrared (IR) laser source (3 W, 1064 nm) on an Olympus IX-73 inverted microscope with a 60×(numerical aperture=1.2) water immersion objective (Olympus). Silica beads (1.5 μm diameter, Polysciences) were incubated with concanavalin A (Sigma-Aldrich) at 1 mg/ml for 1 h. Cells were plated onto glass-bottom dishes (WPI). Coated beads were added to the cell culture medium supplemented with 25 mM HEPES (pH 7.5), and experiments were performed at 37° C. Tether force (F) can be calculated using Hooke's law: F=kΔx, where k is the stiffness of the trap and Δx is the displacement of the bead from the trap center. […] The displacement of the bead in the trap center (Δx) was determined by a quadrant photodiode detector with high precision (the resolution less than 1 nm). […] To compare PM tension between non-motile epithelial cells and malignant cells, we measured the tethering force on the lateral sides of cells. […]
PM tension can be estimated with the following formula: T=Ftether^2/8Bπ^2, where T is the apparent plasma membrane tension (PM tension), Ftether is the tether force measured by optical tweezers, and B is the bending stiffness of the membrane. […]

[3] = test system: GFP-FBP17 in MDA-MB-231 cells; test: Confocal quantification of GFP-FBP17 puncta at the plasma membrane; details: FIG. 5g, 11c, 11e
Protocol: Confocal microscopy, live-cell imaging, and image analysis. For immunofluorescence analysis, cells were fixed with 4% formaldehyde in phosphate-buffered saline (PBS) for 10 min and permeabilized with 0.2% Triton X-100 for 10 min in PBS. Cells were blocked with 5% goat serum (Sigma-Aldrich) in PBS for 1 h and were incubated with primary antibodies for at least 3 h. Then, cells were incubated with secondary antibodies for 1 h. For membrane visualization, Alexa Fluor™ 350 conjugated wheat germ agglutinin (WGA) (Thermo Scientific) was incubated with fixed cells for 30 min before permeabilization. For visualization of F-actin, Alexa Fluor™ 568 Phalloidin (Thermo Scientific) was incubated with fixed cells for 30 min. Fluorescence images were captured using a confocal microscopy system (FluoView 1000-D; Olympus) equipped with 405-, 473-, and 568-nm diode lasers through an objective lens (60× oil immersion objective, NA=1.35). […] The aspect ratio was determined as a ratio of the major cell axis length to minor cell axis length, which was calculated automatically by Image J. We observed that elongated cells typically have an aspect ratio of 5-8, whereas that of amoeboid cells is 2-3. […] The mean intensity of pERM or F-actin all along the membrane regions was then calculated and divided by their mean intensities throughout the cytosol (avoiding the nucleus). […]

Row | Compound | invasive ability (drug-treated cells that invaded through Matrigel) (MDA-MB-231 cells [1]) | PM tension (estimated from tether force) (MDA-MB-231 cells [2]) | recruitment / accumulation of GFP-FBP17 at the PM [3]
1 | COC[C@@H]([C@H](O)[C@H](O)C(=O)NCC[C@H](C)c1nc(/C=C/C[C@@H]2O[C@]3(C[C@@H](O)[C@@H]2C)O[C@H]([C@H](C[C@H](O)[C@H](C)[C@H](O)[C@H](C)/C=C(C)/C(C)=C/C=C/C(C)=C\C#N)OC)[C@H](OP(=O)(O)O)C3(C)C)co1)N(C)C [calyculin A] | no effect | – | –
2 | methyl-β-cyclodextrin [MβCD] | significantly reduced | increases | sufficient to prevent
